Patent US5922887A, “Diaryldiamine derivatives and their use as delta opiod (ANT)-agonists” (SmithKline Beecham SpA, priority 1995, dated 1999)
Counter-ions that a name gives are not always drawn.

Tests used:
[1] = target: T1, delta opioid receptor (Mus musculus, UniProt P32300); test: radioligand binding assay, delta receptor ([3H]-DADLE, mouse brain membranes); details: [3H]-DADLE 1.3 nM in presence of 40 nM DAMGO, read-out: Ki δ
Description: (§1) The activity of the compounds of the present invention as selective delta ligands is determined in radioligand binding assays as described below.
(§2) Mouse brain membranes were prepared as described by Kosterlitz (Br. J. Pharmacol., 1981, 73, 939.). The binding of the preferential delta ligand [^3 H]-[D-Ala^2, D-Leu^5 ]-enkephalin (DADLE) was evaluated at its KD concentration (1.3 nM) in presence of 40 nM of the unlabelled mu ligand [D-Ala^2, MePhe^4, Gly-ol^5 ]-enkephalin (DAMGO). The binding of the mu ligand [^3 H]-DAMGO (Eur. J. Pharmacol., 1989, 166, 213) and of the kappa ligand [^3 H]-U69593 (Excerpta Medica, 1990, 211) were carried out at 0.5 nM. The non-specific binding was determined in presence of naloxone (10 μM) for all tritiated ligands. Binding data were expressed as percentage of inhibition and fitted the following equation: f(x)=100·X/(IC50 +X) where X are cold drug concentration values. The IC50 obtained were used to calculate the inhibitory constants (Ki) accordingly to the Cheng and Prusoff relation (Biochenl. Pharmaco., 1973, 22, 3099).

[2] = target: T1, delta opioid receptor; test: mouse vas deferens (MVD) bioassay, delta agonist/antagonist activity; parameters: Vasa deferentia were obtained from CD-1 mice; from tissue; host or cells: vas deferens of CD-1 mice
Description: The delta agonist/antagonist activity of the compounds of the present invention is determined in the mouse vas deferens (MVD) bioassay as described below.
Vasa deferentia were obtained from CD-1 mice and were suspended in a Mg^2+ -free Krebs buffer at 37° C. The tissues were electrically stimulated with pulse trans having the following parameters: train duration 50 ms, stimulus duration 2 ms, frequency of stimuli 50 Hz, maximal voltage 60-70 V, train frequency 0.1 Hz. Concentration response curves for each compounds were constructed cumulatively. Linear regression analysis and IC50 concentrations were evaluated according to Tallarida and Murray (Manual of Pharmacological Calculations, Springer Verlag N.Y., 1981).

[3] = target: T2, mu opioid receptor (Mus musculus, UniProt P42866); test: radioligand binding assay, mu receptor ([3H]-DAMGO, mouse brain membranes); details: selectivity ratio mu over delta
T2 construct: Mouse brain membranes were prepared as described by Kosterlitz; from tissue; host or cells: mouse brain membranes
T2 sequence (P42866 whole entry): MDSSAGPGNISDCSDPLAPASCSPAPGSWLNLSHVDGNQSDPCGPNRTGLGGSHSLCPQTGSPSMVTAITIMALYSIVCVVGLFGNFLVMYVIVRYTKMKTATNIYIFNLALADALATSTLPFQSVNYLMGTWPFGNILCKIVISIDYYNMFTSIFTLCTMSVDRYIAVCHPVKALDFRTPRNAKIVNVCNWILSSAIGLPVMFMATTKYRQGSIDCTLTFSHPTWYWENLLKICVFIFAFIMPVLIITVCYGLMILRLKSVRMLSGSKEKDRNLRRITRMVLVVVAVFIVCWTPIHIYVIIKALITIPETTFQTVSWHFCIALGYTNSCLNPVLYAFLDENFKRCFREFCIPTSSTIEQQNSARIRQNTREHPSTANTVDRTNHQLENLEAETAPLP
Description: as §1, §2

[4] = target: T3, kappa opioid receptor (Mus musculus, UniProt P33534); test: radioligand binding assay, kappa receptor ([3H]-U69593, mouse brain membranes); details: selectivity ratio kappa over delta
T3 construct: Mouse brain membranes were prepared as described by Kosterlitz; from tissue; host or cells: mouse brain membranes
T3 sequence (P33534 whole entry): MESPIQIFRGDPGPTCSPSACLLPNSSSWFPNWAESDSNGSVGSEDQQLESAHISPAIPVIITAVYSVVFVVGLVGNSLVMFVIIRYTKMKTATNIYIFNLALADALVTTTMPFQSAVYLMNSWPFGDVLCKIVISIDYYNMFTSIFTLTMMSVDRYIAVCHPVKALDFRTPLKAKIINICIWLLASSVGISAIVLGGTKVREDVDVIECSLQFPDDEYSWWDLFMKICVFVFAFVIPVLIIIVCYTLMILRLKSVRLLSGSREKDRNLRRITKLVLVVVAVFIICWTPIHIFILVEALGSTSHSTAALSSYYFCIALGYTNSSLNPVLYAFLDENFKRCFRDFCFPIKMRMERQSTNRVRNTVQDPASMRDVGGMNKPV
Description: as §1, §2

T1 sequence (P32300 whole entry): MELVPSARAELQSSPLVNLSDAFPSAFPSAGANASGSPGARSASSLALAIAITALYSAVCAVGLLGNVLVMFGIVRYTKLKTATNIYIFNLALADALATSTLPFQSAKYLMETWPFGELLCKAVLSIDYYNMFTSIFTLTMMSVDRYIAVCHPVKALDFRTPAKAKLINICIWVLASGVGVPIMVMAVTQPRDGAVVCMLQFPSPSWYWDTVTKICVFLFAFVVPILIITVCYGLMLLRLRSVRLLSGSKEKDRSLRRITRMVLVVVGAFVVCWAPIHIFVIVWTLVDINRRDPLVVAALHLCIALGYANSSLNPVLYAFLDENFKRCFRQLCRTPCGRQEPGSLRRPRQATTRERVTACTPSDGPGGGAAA

For CCN(CC)C(=O)c1ccc(N(c2cccc(O)c2)C(C)CN2CCCC2)cc1 (racemic) [Example 5, (±)-N,N-diethyl-4-[[N-(3-hydroxyphenyl)-N-(3-pyrrolidinoprop-2-yl)]amino]benzamide citrate], the Ki [1] was 3.9 nM, the “shift of the dose-response curve caused by NTI” value ([2]; 30 nM of NTI (naltrindole)) was 10 fold and the IC50 ([2]; electrically stimulated CD-1 mouse vas deferens, 37° C., delta agonists) was 7 nM.
CCN(CC)C(=O)c1ccc(N(c2cccc(O)c2)C(C)CN(C)C)cc1 (racemic) [Example 9, (±)-N,N-diethyl-4-[[N-(3-dimethylaminoprop-2-yl)-N-(3-hydroxyphenyl)]amino]benzamide oxalate] was tested, and the Ki [1] was 3.9 nM, the “Ki μ/Ki δ” value [3] was 148 and the “Ki κ/Ki δ” value [4] was 153.
